Values of other authors as cited in patent US9061077B2 (Emory University, priority 2008, dated 2015).

Key:
[1] = cited from earlier work
[2] = eight human volunteers, single ingested dose of 10 mg; cited from earlier work

## O=C(O)CN(CC(=O)O)CC(=O)O [NTA, nitrilotriacetic acid]
[1]; based on two-year rat studies, nephrotoxic no-observed-adverse-effect level
  Acceptable daily intake in drinking water (Health Canada): 10 μg/kg bw per day
[1]; rats and mice, two years
  Dose inducing urinary tract tumors: about 840 mg/kg bw per day
[2]
  Adverse effects (physical examination, blood chemistry, urinalysis): no evidence of adverse effects
